According to ChEMBL document CHEMBL3352398, “2-(2-Bromophenyl)-formononetin and 2-heptyl-formononetin are PPARγ partial agonists and reduce lipid accumulation in 3T3-L1 adipocytes” (Bioorg Med Chem, 2014):
Values belong to the compound of their own block, whether it stands above or below them. The source made the active and inactive calls. No cut-off for these calls is given here.

What was measured:
[1] = biological target: T1, Peroxisome proliferator-activated receptor gamma (Homo sapiens, UniProt P37231); assay: Binding affinity to PPAR-gamma (unknown origin)
T1 sequence (P37231 whole entry): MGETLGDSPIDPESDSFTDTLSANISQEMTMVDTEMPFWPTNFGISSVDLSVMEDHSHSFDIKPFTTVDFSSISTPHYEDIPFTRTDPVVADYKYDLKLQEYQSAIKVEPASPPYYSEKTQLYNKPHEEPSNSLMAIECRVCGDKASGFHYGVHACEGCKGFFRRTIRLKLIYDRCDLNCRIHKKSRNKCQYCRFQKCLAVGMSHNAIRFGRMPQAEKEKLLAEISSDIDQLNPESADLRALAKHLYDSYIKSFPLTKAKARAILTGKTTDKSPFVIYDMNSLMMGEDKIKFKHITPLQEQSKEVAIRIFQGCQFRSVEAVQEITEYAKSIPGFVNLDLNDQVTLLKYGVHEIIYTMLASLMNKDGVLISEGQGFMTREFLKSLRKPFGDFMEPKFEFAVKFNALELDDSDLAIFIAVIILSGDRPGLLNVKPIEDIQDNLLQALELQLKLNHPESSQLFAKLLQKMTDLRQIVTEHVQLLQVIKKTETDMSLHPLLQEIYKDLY

[2] = tested on: 3T3-L1; assay: Effect on lipolysis in mouse 3T3L1 cells assessed as reduction in glycerol level at 5 to 50 uM after 48 hrs by UV-Vis spectrophotometry; format: functional, cell-based
[3] = biological target: T2, Peroxisome proliferator-activated receptor alpha (Homo sapiens) (UniProt Q07869); assay: Agonist activity at PPAR-alpha (unknown origin) by transactivation assay
T2 sequence (whole entry): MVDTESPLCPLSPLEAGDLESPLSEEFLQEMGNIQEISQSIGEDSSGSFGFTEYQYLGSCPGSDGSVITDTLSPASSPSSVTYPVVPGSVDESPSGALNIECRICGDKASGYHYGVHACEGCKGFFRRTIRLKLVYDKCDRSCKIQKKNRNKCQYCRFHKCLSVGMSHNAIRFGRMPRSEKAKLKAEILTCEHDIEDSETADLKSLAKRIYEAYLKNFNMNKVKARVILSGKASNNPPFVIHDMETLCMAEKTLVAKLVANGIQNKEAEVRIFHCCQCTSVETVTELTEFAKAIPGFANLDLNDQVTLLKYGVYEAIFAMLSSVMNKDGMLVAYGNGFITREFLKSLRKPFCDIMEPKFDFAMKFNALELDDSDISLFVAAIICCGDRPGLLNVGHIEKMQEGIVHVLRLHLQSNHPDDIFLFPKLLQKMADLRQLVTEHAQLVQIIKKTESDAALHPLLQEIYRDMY

[4] = biological target: Peroxisome proliferator-activated receptor gamma (Mus musculus) (UniProt P37238); assay: Partial agonist activity at PPAR-gamma in mouse embryo fibroblast assessed as reduction in activation by transactivation assay in presence of rosiglitazone
[5] = tested on: 3T3-L1; assay: Reduction in triglyceride release in mouse 3T3L1 cells at 50 uM after 48 hrs by oil red o assay; format: functional, cell-based
[6] = tested on: 3T3-L1; assay: Reduction in triglyceride release in mouse 3T3L1 cells at 50 uM after 48 hrs by fluorescence-based AdipoRed assay; format: functional, cell-based
[7] = biological target: T3, Peroxisome proliferator-activated receptor gamma (Mus musculus) (UniProt P37238); assay: Agonist activity at PPAR-gamma in mouse embryo fibroblast at 5 to 50 uM by transactivation assay relative to rosiglitazone
T3 sequence (whole entry): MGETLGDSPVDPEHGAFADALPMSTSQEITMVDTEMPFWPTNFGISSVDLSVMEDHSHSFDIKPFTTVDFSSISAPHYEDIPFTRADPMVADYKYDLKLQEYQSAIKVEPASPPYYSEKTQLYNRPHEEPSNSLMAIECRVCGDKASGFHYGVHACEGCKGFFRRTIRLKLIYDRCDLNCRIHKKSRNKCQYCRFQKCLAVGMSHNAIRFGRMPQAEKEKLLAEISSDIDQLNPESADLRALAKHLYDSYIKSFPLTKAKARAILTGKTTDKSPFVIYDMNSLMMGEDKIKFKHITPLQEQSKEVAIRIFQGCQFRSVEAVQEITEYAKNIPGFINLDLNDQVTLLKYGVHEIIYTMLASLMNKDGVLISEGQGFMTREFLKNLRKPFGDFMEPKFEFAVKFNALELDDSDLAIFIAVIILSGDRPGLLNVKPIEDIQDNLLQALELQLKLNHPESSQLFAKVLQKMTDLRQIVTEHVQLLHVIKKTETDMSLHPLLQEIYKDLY

[8] = tested on: 3T3-L1; assay: Induction of lipolysis in mouse 3T3L1 cells assessed as up-regulation of Acox1 gene exression by real time-qPCR analysis; format: functional, cell-based
[9] = Cytotoxicity against mouse 3T3L1 cells assessed as effect on lactate dehydrogenase release at 5 to 50 uM measured on day 2; format: cell-based; settings: 3t3-l1, 50 µM
[10] = biological target: T3, Peroxisome proliferator-activated receptor gamma (Mus musculus); assay: Agonist activity at PPAR-gamma in mouse embryo fibroblast by transactivation assay relative to rosiglitazone
[11] = tested on: 3T3-L1; assay: Reduction in lipogenesis in mouse 3T3L1 cells assessed as down regulation of Scd1 gene exression by real time-qPCR analysis; format: functional, cell-based
[12] = tested on: 3T3-L1; assay: Effect on adipogenesis in mouse 3T3L1 cells in DI media assessed as reduction in fat-laden mature adipocytes at 50 uM after 8 days by oil red o assay; format: functional, cell-based
[13] = tested on: 3T3-L1; assay: Activation of AMPK in mouse 3T3L1 cells assessed as AMPK phosphorylation at 50 uM after 5 to 48 hrs by Western blotting analysis; format: cell-based
[14] = tested on: 3T3-L1; assay: Reduction of adipogenesis in mouse 3T3L1 cells assessed as decrease in lipid accumulation measured on day 8 by oil red o assay; format: functional, cell-based
[15] = Cytotoxicity against mouse 3T3L1 cells assessed as LDH release at 50 uM after 48 hrs; format: cell-based; settings: 3t3-l1, 48 h
[16] = Cytotoxicity against mouse 3T3L1 cells assessed as effect on lactate dehydrogenase release at 5 to 50 uM measured on day 8; format: cell-based; settings: 3t3-l1, 50 µM
[17] = tested on: 3T3-L1; assay: Effect on adipogenesis in mouse 3T3L1 cells in DI media assessed as reduction in lipid accumulation at 50 uM measured on day 8 by fluorescence-based AdipoRed assay; format: functional, cell-based
[18] = biological target: T4, Peroxisome proliferator-activated receptor delta (Homo sapiens) (UniProt Q03181); assay: Agonist activity at PPAR-delta (unknown origin) by transactivation assay
T4 sequence (whole entry): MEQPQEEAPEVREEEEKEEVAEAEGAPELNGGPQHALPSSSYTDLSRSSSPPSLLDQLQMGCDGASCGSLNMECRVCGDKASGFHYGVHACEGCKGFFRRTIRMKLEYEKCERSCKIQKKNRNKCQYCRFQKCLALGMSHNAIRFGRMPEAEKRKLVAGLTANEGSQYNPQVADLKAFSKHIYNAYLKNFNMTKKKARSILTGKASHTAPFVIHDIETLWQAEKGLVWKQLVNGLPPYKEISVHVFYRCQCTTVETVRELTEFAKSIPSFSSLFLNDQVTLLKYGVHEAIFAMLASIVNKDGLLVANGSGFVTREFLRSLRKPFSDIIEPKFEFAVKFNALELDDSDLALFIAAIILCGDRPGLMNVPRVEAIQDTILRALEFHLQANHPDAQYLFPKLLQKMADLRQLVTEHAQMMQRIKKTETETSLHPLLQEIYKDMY

[19] = Effect on adipogenesis in mature mouse 3T3L1 cells assessed as upregulation of Sirt1 gene expression; format: functional, cell-based; settings: 3T3-L1
[20] = tested on: 3T3-L1; assay: Effect on adipogenesis in mouse 3T3L1 cells in DI media assessed as increase in lipid accumulation at <25 uM after 8 days by fluorescence-based AdipoRed assay; format: functional, cell-based
[21] = biological target: T5, Peroxisome proliferator-activated receptor gamma (Homo sapiens) (UniProt P37231); assay: Competitive binding to human GST-tagged PPAR-gamma at <=100 uM by TR-FRET assay
T5 sequence (whole entry): T1 sequence (P37231 whole entry)

[22] = tested on: 3T3-L1; assay: Effect on adipogenesis in mouse 3T3L1 cells in DI media assessed as increase in fat-laden mature adipocytes at <25 uM after 8 days by oil red o assay; format: functional, cell-based
[23] = tested on: 3T3-L1; assay: Reduction of adipogenesis in mouse 3T3L1 cells assessed as decrease in lipid accumulation measured on day 8 by fluorescence-based AdipoRed assay; format: functional, cell-based
[24] = tested on: 3T3-L1; assay: Activation of AMPK in mouse 3T3L1 cells assessed as AMPK phosphorylation at 500 uM after 5 hrs by Western blotting analysis; format: cell-based
[25] = tested on: 3T3-L1; assay: Effect on adipogenesis in mouse 3T3L1 cells assessed as reduction in Adipoq gene expression at 5 to 50 uM after 8 days by real time quantitative PCR analysis relative to vehicle-treated control; format: functional, cell-based
[26] = tested on: 3T3-L1; assay: Effect on adipogenesis in mouse 3T3L1 cells in DI media assessed as increase in fat-laden mature adipocytes after 8 days by oil red o assay; format: functional, cell-based
[27] = biological target: Peroxisome proliferator-activated receptor gamma (Mus musculus) (UniProt P37238); assay: Partial agonist activity at PPAR-gamma in mouse embryo fibroblast assessed as reduction in activation at 5 to 50 uM by transactivation assay in presence of rosiglitazone
[28] = tested on: 3T3-L1; assay: Effect on adipogenesis in mouse 3T3L1 cells assessed as reduction in Adipoq gene expression at 5 to 50 uM after 4 days by real time quantitative PCR analysis relative to vehicle-treated control; format: functional, cell-based
[29] = tested on: 3T3-L1; assay: Effect on adipogenesis in mouse 3T3L1 cells assessed as increase in lipid accumulation at 5 to 50 uM measured on day 8 by fluorescence-based AdipoRed assay; format: functional, cell-based
[30] = tested on: 3T3-L1; assay: Effect on adipogenesis in mouse 3T3L1 cells assessed as reduction in Cebpa gene expression at 5 to 50 uM after 8 days by real time quantitative PCR analysis relative to vehicle-treated control; format: functional, cell-based
[31] = tested on: 3T3-L1; assay: Induction of lipolysis in mouse 3T3L1 cells assessed as up-regulation of Atgl gene exression by real time-qPCR analysis; format: functional, cell-based
[32] = tested on: 3T3-L1; assay: Effect on adipogenesis in mouse 3T3L1 cells assessed as increase in Srebf1 gene expression at 5 to 50 uM after 8 days by real time quantitative PCR analysis relative to vehicle-treated control; format: functional, cell-based
[33] = tested on: 3T3-L1; assay: Effect on adipogenesis in mouse 3T3L1 cells assessed as reduction in Fabp4 gene expression at 5 to 50 uM after 8 days by real time quantitative PCR analysis relative to vehicle-treated control; format: functional, cell-based
[34] = tested on: 3T3-L1; assay: Effect on adipogenesis in mouse 3T3L1 cells assessed as reduction in Fabp4 gene expression at 5 to 50 uM after 4 days by real time quantitative PCR analysis relative to vehicle-treated control; format: functional, cell-based
[35] = tested on: 3T3-L1; assay: Effect on adipogenesis in mouse 3T3L1 cells assessed as reduction in Srebf1 gene expression at 5 to 50 uM after 4 days by real time quantitative PCR analysis relative to vehicle-treated control; format: functional, cell-based
[36] = tested on: 3T3-L1; assay: Effect on adipogenesis in mouse 3T3L1 cells assessed as reduction in Pparg gene expression at 5 to 50 uM after 4 days by real time quantitative PCR analysis relative to vehicle-treated control; format: functional, cell-based
[37] = tested on: 3T3-L1; assay: Effect on adipogenesis in mouse 3T3L1 cells in DI media assessed as increase in lipid accumulation after 8 days by fluorescence-based AdipoRed assay; format: functional, cell-based
[38] = tested on: 3T3-L1; assay: Effect on adipogenesis in mouse 3T3L1 cells assessed as reduction in Cebpa gene expression at 5 to 50 uM after 4 days by real time quantitative PCR analysis relative to vehicle-treated control; format: functional, cell-based
[39] = tested on: 3T3-L1; assay: Effect on adipogenesis in mouse 3T3L1 cells assessed as reduction in Pparg gene expression at 5 to 50 uM after 8 days by real time quantitative PCR analysis relative to vehicle-treated control; format: functional, cell-based
[40] = tested on: 3T3-L1; assay: Effect on adipogenesis in mouse 3T3L1 cells assessed as increase in lipid accumulation at 5 to 50 uM measured on day 8 by oil red o assay; format: functional, cell-based

IC50 [1]: 124 µM
Structure (SMILES): COc1ccc(C2COc3cc(O)ccc3C2=O)cc1 (stereo unspecified)

IC50 [1]: 26 µM
Structure (SMILES): COc1ccc(C(C)C(=O)c2ccc(O)cc2O)cc1 (stereo unspecified)

Activity [3]: inactive | Activity [4]: Dose-dependent effect | Activity [7]: 4% | Activity [10]: Dose-dependent effect | Activity [18]: inactive | Activity [21]: Active
Structure (SMILES): COc1ccc(-c2c(-c3ccccc3Br)oc3cc(O)ccc3c2=O)cc1
Activity [2]: Active | Activity [5]: Active | Activity [6]: Active | Activity [8]: Active | Activity [9]: Non-toxic | Activity [11]: Active | Activity [12]: Active | Activity [13]: inactive | Activity [14]: Dose-dependent effect | Activity [15]: Toxic | Activity [16]: Non-toxic | Activity [17]: Active | Activity [19]: inactive | Activity [20]: Active | Activity [22]: Active | Activity [23]: Dose-dependent effect

Structure (SMILES): NC(=O)c1ncn([C@@H]2O[C@H](CO)[C@@H](O)[C@H]2O)c1N
Activity [24]: Active

Activity [27]: Active | Activity [7]: inactive | Activity [21]: inactive
Structure (SMILES): COc1ccc(-c2coc3cc(O)ccc3c2=O)cc1 [FORMONONETIN]
Activity [2]: Active | Activity [25]: Active | Activity [26]: Dose-dependent effect | Activity [28]: Active | Activity [29]: Active | Activity [30]: Active | Activity [5]: inactive | Activity [6]: inactive | Activity [9]: Non-toxic | Activity [31]: Active | Activity [13]: inactive | Activity [32]: inactive | Activity [33]: Active | Activity [34]: Active | Activity [35]: inactive | Activity [15]: Non-toxic | Activity [16]: Non-toxic | Activity [36]: Active | Activity [37]: Dose-dependent effect | Activity [19]: inactive | Activity [38]: Active | Activity [39]: Active | Activity [40]: Active
